Measurements taken from BindingDB's records for doi:10.1021/jm00376a004 (1984).

Assay: Compound was evaluated for average apparent binding constant (Kd ) using Scatchard analysis to dTMP synthetase enzyme from chick embryo

`O=c1nc(NO)ccn1[C@H]1C[C@H](O)[C@@H](COP(=O)(O)O)O1` [Phosphoric acid mono-[3-hydroxy-5-(4-hydroxyamino-2-oxo-2H-pyrimidin-1-yl)-tetrahydro-furan-2-ylmethyl] ester] showed a Kd of 1000 nM.
